The values that follow come from article PMC7246176 (Nature chemical biology, 2020).

This data set can be described thus: Maximum dose tolerability evaluation in mice. The following applies: doses up to 100 mg/kg, oral gavage daily for two weeks, no adverse effects, no loss of body weight. The class given is in vivo, C57B6/6J mice.

Consider `COc1cc(N2CCN(C)CC2)ccc1Nc1ncc2c(n1)N(C)c1ccccc1C(=O)N2CC(F)(F)F` [DCLK1-IN-1], for which the “tolerability (maximum tolerated dose study)” value was “well-tolerated”.
